Values quoted from earlier work as cited in patent publication US8476227B2, “Methods of activating a melanocortin-4 receptor pathway in obese subjects” (Ethicon Endo-Surgery, Inc., priority 2010, dated 2013).

Settings: rat models; background statement, no dose or regimen given

For NDP-MSH, the body weight gain is listed as “attenuate” and the food intake is listed as “attenuate”.
